Entries after “also recorded” stand apart in the source; their conditions may differ.
Test system: isolated perfused rat hearts
Assay: Ex vivo coronary flow, Langendorff perfused isolated rat hearts
Settings: after sodium deoxycholate; AR234960 1 μM; adenosine 1 μM
Experimental: Coronary flow was measured in male Mas^−/− and Mas^+/+ mice, and in male Sprague-Dawley rats using Langendorff perfused isolated hearts. Freshly isolated hearts were placed on a Langendorff apparatus (Harvard Apparatus) and perfused at a constant pressure of 80 mmHg with a modified Krebs-Henseleit buffer solution (Sigma K3753) and aerated with 95% oxygen and 5% carbon dioxide, pH 7.35-7.4. The temperature was maintained at 37° C. by surrounding the heart with a water-heated glassware chamber. Coronary flow was measured using a flow measurement system (Harvard Apparatus) which included the transit time flow meter and a flow probe built into an adaptor block located at the perfusate inflow port. Data were recorded continuously using an ISOHEART data acquisition system (Harvard Apparatus). After a 20-min equilibration period, Mas compounds were added to the perfusion buffer reservoir at the desired concentration (agonist AR234960 at 1 μM, or inverse agonist AR244555 at 5 μM) and coronary flow was recorded for 10 min
To determine the role of the Mas-Gq-PLC pathway in regulating coronary flow, the Mas inverse agonist AR244555 (5 μM) or the PLC inhibitor U-73122 (0.5 μM) was added to the perfusion buffer for 10 min and then the agonist AR234960 (1 μM) was added to the perfusion buffer. Coronary flow was recorded for another 10 min Changes in coronary flow induced by AR234960 were calculated as percentage of the coronary flow at 10 min following AR234960 treatment, relative to the coronary flow measured immediately prior to addition of AR234960. This protocol allowed for measurement of agonist mediated vasoconstrictor activity, and accounted for changes in baseline coronary flow due to inverse agonist treatment alone.
To determine whether Mas agonist-induced changes in coronary flow were endothelium-dependent, the responses in Langendorff perfused hearts were measured after chemical removal of endothelium with sodium deoxycholate. After a 20-min equilibration period, sodium deoxycholate was added to the perfusion buffer at 0.2 mg/mL for 3 min and then washed out for 10 min Mas compounds were added and coronary flow was recorded for 10 min Adenosine (1 μM), a coronary vasodilator that targets the endothelium, was used as a control to verify effective removal of endothelium.

`Nc1ncnc2c1ncn2[C@@H]1O[C@H](CO)[C@@H](O)[C@H]1O` [adenosine] was tested, and the “compound-mediated change in coronary flow in endothelium denuded hearts” value was “abolished”.

Same assay, conditions: pretreatment 10 min: AR244555 5 μM or U-73122 0.5 μM

`COc1ccc2c(c1)CC[C@@H]1[C@@H]2CC[C@]2(C)[C@@H](NCCCCCCN3C(=O)C=CC3=O)CC[C@@H]12` [Compound U-73122, 1-(6-((8R,9S,13S,14S,17S)-3-methoxy-13-methyl-7,8,9,11,12,13,14,15,16,17-decahydro-6H-cyclopenta[a]phenanthren-17-ylamino)hexyl)-1H-pyrrole-2,5-dione] was tested, and the “decrease in coronary flow induced by AR234960 (1 μM) after pretreatment” value was “blocked the decrease; also recorded: prevented the decrease”.

Molecular target: T1, human Mas receptor (Homo sapiens, UniProt P04201)
T1 construct: expressed in transfected cells; host or cells: HEK293 (ATCC CRL-1573)
T1 sequence (P04201 1-325): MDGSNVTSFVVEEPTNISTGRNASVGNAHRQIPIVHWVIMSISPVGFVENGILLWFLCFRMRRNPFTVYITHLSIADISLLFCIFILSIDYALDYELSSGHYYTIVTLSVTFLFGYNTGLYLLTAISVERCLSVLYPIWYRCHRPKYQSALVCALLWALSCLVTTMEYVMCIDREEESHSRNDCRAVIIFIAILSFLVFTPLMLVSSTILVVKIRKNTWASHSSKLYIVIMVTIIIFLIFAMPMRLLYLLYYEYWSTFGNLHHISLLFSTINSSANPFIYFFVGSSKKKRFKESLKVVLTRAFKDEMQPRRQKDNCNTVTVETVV
Assay: HTRF IP1 assay, HEK293 cells expressing human Mas receptor
Type: cell-based
Settings: HTRF IP1 assay, human Mas receptor (Table B.2); read-out: IC50
Source text: (§1) Human and rat Mas receptors were either transiently or stably expressed in HEK293 cells. For transient transfections, human or rat Mas in pHM6 vector were transfected into HEK293 cells using Lipofectamine® (Invitrogen #18324-012). HEK293 cells transfected with empty pHM6 vector were used as a control. For generation of stable cell lines, cDNA expression plasmids encoding human or rat Mas genes and the neo^r gene were transfected into HEK293 cells (ATCC# CRL-1573) using Lipofectamine® (Invitrogen) according to the manufacturer's instructions. Stable receptor expressing pools were then generated over 3 weeks by standard techniques in the presence of 500 μg/mL Geneticin® (Gibco). Individual receptor stable pools were dilution cloned using standard techniques and clones were comparatively evaluated in inositol phosphate accumulation assays. Preferred clones were banked and cultured as needed. HEK293 cells were used as controls. The 384 well IP-One HTRF® Assay (Cisbio #62P1APEJ) was performed as described by the manufacturer's protocol. Cells were plated in at 100,000 cells per well in 15 μL DMEM (Gibco #11960) and incubated in a CO2 incubator at 37° C. for 2 h. Five μL of compounds diluted in 2× stimulation buffer plus 0.4% BSA (Sigma (#A3059) were added to each well and serial diluted IP1 standards (Cisbio #62IP1CDA) were also added to corresponding wells at this step. After the cells were incubated for 4 h in a CO2 incubator at 37° C., d2-labeled IP1 and cryptate-labeled anti-IP1 monoclonal antibody diluted in lysis buffer were added sequentially in 10 μL per well and the assay plates were kept in the dark at room temperature overnight. Ratiometric measurements of fluorescence emission at 665 nm and 620 nm were obtained using a Pherastar fluorometer (BMG Labtech). IP1 levels in each well were calculated according to the standard curves on each plate. IC50 values were obtained by fitting data to a nonlinear curve-fitting program (GraphPad Software, Inc., La Jolla Calif.).

Going from `O=C(Nc1ccc(Cl)cc1N1CCN(CCC(F)(F)F)CC1)c1ccc(CN(CCO)CCO)c(F)c1F` [Compound 178] to `O=C(O)C[C@H]1CNCCN1Cc1ccc(C(=O)Nc2ccc(Cl)cc2N2CCN(CCC(F)(F)F)CC2)c(F)c1F` [Compound 231, (S)-2-(1-(4-(4-Chloro-2-(4-(3,3,3-trifluoropropyl)piperazin-1-yl)phenylcarbamoyl)-2,3-difluorobenzyl)piperazin-2-yl)acetic acid], the IC50 rises from 34.4 nM to 74.3 nM (2.2-fold). The first is the more potent here.

Molecular target: T2, rat Mas receptor (Rattus norvegicus, UniProt P12526)
T2 construct: expressed in transfected cells; host or cells: HEK293 (ATCC CRL-1573)
T2 sequence (P12526 1-324): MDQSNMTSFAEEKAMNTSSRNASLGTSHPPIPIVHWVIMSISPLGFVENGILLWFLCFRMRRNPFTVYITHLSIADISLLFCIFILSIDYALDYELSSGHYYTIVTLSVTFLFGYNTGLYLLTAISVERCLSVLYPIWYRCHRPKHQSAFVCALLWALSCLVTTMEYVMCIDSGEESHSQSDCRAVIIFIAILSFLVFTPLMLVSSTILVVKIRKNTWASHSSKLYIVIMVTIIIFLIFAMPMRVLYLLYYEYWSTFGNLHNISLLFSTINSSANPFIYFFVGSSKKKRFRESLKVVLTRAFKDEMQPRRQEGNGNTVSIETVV
Assay: HTRF IP1 assay, HEK293 cells expressing rat Mas receptor
Type: cell-based
Settings: HTRF IP1 assay, rat Mas receptor (Table B.1); read-out: IC50
Source text: as §1

Compared with `C[C@H](NCc1ccc(C(=O)Nc2ccc(Cl)cc2N2CCN(CCC(F)(F)F)CC2)c(F)c1)C(N)=O` [Compound 67, (S)-4-((1-Amino-1-oxopropan-2-ylamino)methyl)-N-(4-chloro-2-(4-(3,3,3-trifluoropropyl)piperazin-1-yl)phenyl)-2-fluorobenzamide], `COC(=O)[C@H](CN)NCc1ccc(C(=O)Nc2ccc(Cl)cc2N2CCN(CCC(F)(F)F)CC2)c(F)c1` [Compound 198, (S)-Methyl 3-amino-2-(4-(4-chloro-2-(4-(3,3,3-trifluoropropyl)piperazin-1-yl)phenylcarbamoyl)-3-fluorobenzylamino)propanoate] is 2.1-fold higher in IC50: 82 nM for the first, 173 nM for the second.

First: O=C(Nc1ccc(Cl)cc1N1CCN(CCC(F)(F)F)CC1)c1ccc(CNC2CCCCNC2=O)cc1F (stereo not drawn) [Compound 79, N-(4-Chloro-2-(4-(3,3,3-trifluoropropyl)piperazin-1-yl)phenyl)-2-fluoro-4-((2-oxoazepan-3-ylamino)methyl)benzamide]
Second: CCN1CCCCC(NCc2ccc(C(=O)Nc3ccc(Cl)cc3N3CCN(CCC(F)(F)F)CC3)c(F)c2)C1=O (stereo not drawn) [Compound 117, N-(4-Chloro-2-(4-(3,3,3-trifluoropropyl)piperazin-1-yl)phenyl)-4-((1-ethyl-2-oxoazepan-3-ylamino)methyl)-2-fluorobenzamide]
The IC50 of the first is 2.8-fold lower: 133 nM for the first, 373 nM for the second. The first is the more potent here.

First: N[C@@H]1CCCN(Cc2ccc(C(=O)Nc3ccc(Cl)cc3N3CCN(CCC(F)(F)F)CC3)c(F)c2)C1 [Compound 90, (R)-4-((3-Aminopiperidin-1-yl)methyl)-N-(4-chloro-2-(4-(3,3,3-trifluoropropyl)piperazin-1-yl)phenyl)-2-fluorobenzamide]
Second: O=C(Nc1ccc(Cl)cc1N1CCN(CCC(F)(F)F)CC1)c1ccc(CN2CCN3CCCC3C2)cc1F (stereo not drawn) [Compound 157, N-(4-Chloro-2-(4-(3,3,3-trifluoropropyl)piperazin-1-yl)phenyl)-2-fluoro-4-((hexahydropyrrolo[1,2-a]pyrazin-2(1H)-yl)methyl)benzamide]
The IC50 of the first is 3.8-fold higher: 704 nM for the first, 184 nM for the second. The second is the more potent here.

Going from `O=C(Nc1ccc(Cl)cc1N1CCN(CCC(F)(F)F)CC1)c1ccc(CNC(CO)(CO)CO)cc1F` [Compound 103, N-(4-Chloro-2-(4-(3,3,3-trifluoropropyl)piperazin-1-yl)phenyl)-4-((1,3-dihydroxy-2-(hydroxymethyl)propan-2-ylamino)methyl)-2-fluorobenzamide] to `C[C@@H](O)CNCc1ccc(C(=O)Nc2ccc(Cl)cc2N2CCN(CCC(F)(F)F)CC2)c(F)c1` [Compound 130, (R)—N-(4-Chloro-2-(4-(3,3,3-trifluoropropyl)piperazin-1-yl)phenyl)-2-fluoro-4-((2-hydroxypropylamino)methyl)benzamide], the IC50 falls from 535 nM to 252 nM (2.1-fold).

First: O=C(Nc1ccc(Cl)cc1N1CCN(CCC(F)(F)F)CC1)c1ccc(CN(CCO)CCO)cc1F [Compound 144]
Second: O=C(Nc1ccc(Cl)cc1N1CCN(CCC(F)(F)F)CC1)c1ccc(CN(CCO)CCO)c(F)c1F [Compound 178]
The IC50 of the first is 2.4-fold higher: 108 nM for the first, 44.8 nM for the second.

Going from `O=C(Nc1ccc(Cl)cc1N1CCN(CCC(F)(F)F)CC1)c1ccc(CN2CCS(=O)(=O)CC2)c(F)c1F` [Compound 168, N-(4-Chloro-2-(4-(3,3,3-trifluoropropyl)piperazin-1-yl)phenyl)-2,3-difluoro-4-((1,1-dioxo-thiomorpholin-4-yl)methyl)benzamide] to `O=C(Nc1ccc(Cl)cc1N1CCN(CCC(F)(F)F)CC1)c1ccc(CN2CCC[C@@H](CO)C2)c(F)c1F` [Compound 252, (R)—N-(4-Chloro-2-(4-(3,3,3-trifluoropropyl)piperazin-1-yl)phenyl)-2,3-difluoro-4-((3-(hydroxymethyl)piperidin-1-yl)methyl)benzamide], the IC50 rises from 27.2 nM to 115 nM (4.2-fold).

Compared with `O=C1CN(Cc2ccc(C(=O)Nc3cc(Cl)c(Cl)cc3N3CCN(CCC(F)(F)F)CC3)c(F)c2F)CCN1` [Compound 188, N-(4,5-Dichloro-2-(4-(3,3,3-trifluoropropyl)piperazin-1-yl)phenyl)-2,3-difluoro-4-((3-oxopiperazin-1-yl)methyl)benzamide], `O=C(O)C[C@H]1CNCCN1Cc1ccc(C(=O)Nc2ccc(Cl)cc2N2CCN(CCC(F)(F)F)CC2)c(F)c1F` [Compound 231, (S)-2-(1-(4-(4-Chloro-2-(4-(3,3,3-trifluoropropyl)piperazin-1-yl)phenylcarbamoyl)-2,3-difluorobenzyl)piperazin-2-yl)acetic acid] is 1.7-fold higher in IC50: 29 nM for the first, 50 nM for the second. The first is the more potent here.

Going from `CN(CC(=O)O)Cc1ccc(C(=O)Nc2ccc(Cl)cc2N2CCN(CCC(F)(F)F)CC2)c(F)c1F` [Compound 210, 2-((4-(4-Chloro-2-(4-(3,3,3-trifluoropropyl)piperazin-1-yl)phenylcarbamoyl)-2,3-difluorobenzyl)(methyl)amino)acetic acid] to `C[C@@H](CO)NC(=O)C1CNCCN1Cc1ccc(C(=O)Nc2ccc(Cl)cc2N2CCN(CCC(F)(F)F)CC2)c(F)c1F` (stereo partly drawn) [Compound 242, 1-(4-(4-Chloro-2-(4-(3,3,3-trifluoropropyl)piperazin-1-yl)phenylcarbamoyl)-2,3-difluorobenzyl)-N—((S)-1-hydroxypropan-2-yl)piperazine-2-carboxamide], the IC50 rises from 68 nM to 315 nM (4.6-fold). The first is the more potent here.

With `CC(C)(C)OC(=O)NCC[C@H](NCc1ccc(C(=O)Nc2ccc(Cl)cc2N2CCN(CCC(F)(F)F)CC2)c(F)c1F)C(=O)O` [Compound 221, (S)-4-(tert-Butoxycarbonylamino)-2-(4-(4-chloro-2-(4-(3,3,3-trifluoropropyl)piperazin-1-yl)phenylcarbamoyl)-2,3-difluorobenzylamino)butanoic acid] the IC50 was 157 nM.

— patent publication US20140309192A1, “MODULATORS OF THE G PROTEIN-COUPLED MAS RECEPTOR AND THE TREATMENT OF DISORDERS RELATED THERETO” (ARENA PHARMACEUTICALS, INC., priority 2011, published 2014)
